Reference: the NIST ThermoML archive (doi:10.1021/je900124n)
“And” between values parts separate entries of the source, which are not always exact repeats. Identical values can stand only once. Numbers after ± are expanded uncertainties.

Conditions: Fluid (supercritical or subcritical phases), Buoyancy - hydrostatic balance with magnetic suspension - two sinkers

CCC [propane]
Conditions	mass density
315 K, 774.95 kPa	14.7169 ± 0.0042 kg/m3 and 14.7168 ± 0.0042 kg/m3
315 K, 774.96 kPa	14.7169 ± 0.0042 kg/m3 and 14.7168 ± 0.0042 kg/m3
315 K, 1306.4 kPa	27.9201 ± 0.0071 kg/m3 and 27.9221 ± 0.0071 kg/m3
315 K, 1306.5 kPa	27.9244 ± 0.0072 kg/m3
315 K, 1306.6 kPa	27.927 ± 0.0071 kg/m3 and 27.926 ± 0.0071 kg/m3
320 K, 270.24 kPa	4.64 ± 0.0029 kg/m3 and 4.6399 ± 0.0029 kg/m3 and 4.6398 ± 0.0029 kg/m3
320 K, 476.69 kPa	8.4338 ± 0.0034 kg/m3 and 8.4339 ± 0.0034 kg/m3
320 K, 789.41 kPa	14.6898 ± 0.0041 kg/m3
320 K, 789.42 kPa	14.69 ± 0.0041 kg/m3
320 K, 789.43 kPa	14.6907 ± 0.0041 kg/m3 and 14.6901 ± 0.0041 kg/m3
320 K, 1333.7 kPa	27.726 ± 0.53 kg/m3
320 K, 1333.9 kPa	27.7763 ± 0.53 kg/m3
320 K, 1334.3 kPa	27.7883 ± 0.53 kg/m3
320 K, 1334.6 kPa	27.742 ± 0.53 kg/m3
320 K, 1335 kPa	27.8035 ± 0.53 kg/m3
320 K, 2017.4 kPa	457.1 ± 0.15 kg/m3
320 K, 2018.5 kPa	457.104 ± 0.15 kg/m3
320 K, 2018.7 kPa	457.105 ± 0.15 kg/m3
320 K, 2018.8 kPa	457.104 ± 0.15 kg/m3
320 K, 2019.1 kPa	457.105 ± 0.15 kg/m3
320 K, 2019.3 kPa	457.11 ± 0.15 kg/m3
320 K, 2019.4 kPa	457.108 ± 0.15 kg/m3
320 K, 2019.5 kPa	457.11 ± 0.15 kg/m3
320 K, 2019.8 kPa	457.109 ± 0.15 kg/m3 and 457.107 ± 0.15 kg/m3 and 457.108 ± 0.15 kg/m3
320 K, 2019.9 kPa	457.109 ± 0.15 kg/m3
320 K, 4080.8 kPa	466.418 ± 0.057 kg/m3
320 K, 4080.9 kPa	466.42 ± 0.057 kg/m3
320 K, 4081 kPa	466.419 ± 0.057 kg/m3
320 K, 4081.3 kPa	466.42 ± 0.057 kg/m3
320 K, 4081.6 kPa	466.42 ± 0.057 kg/m3
320 K, 8257.8 kPa	481.065 ± 0.058 kg/m3
320 K, 8258.1 kPa	481.068 ± 0.058 kg/m3
320 K, 8258.4 kPa	481.067 ± 0.058 kg/m3 and 481.068 ± 0.058 kg/m3
320 K, 10347 kPa	487.109 ± 0.059 kg/m3 and 487.106 ± 0.059 kg/m3 and 487.107 ± 0.059 kg/m3
320 K, 10348 kPa	487.113 ± 0.059 kg/m3 and 487.107 ± 0.059 kg/m3
320 K, 10349 kPa	487.112 ± 0.059 kg/m3
320 K, 12003 kPa	491.44 ± 0.06 kg/m3
320 K, 12004 kPa	491.44 ± 0.06 kg/m3 and 491.441 ± 0.06 kg/m3
320 K, 16094 kPa	500.965 ± 0.061 kg/m3
320 K, 16095 kPa	500.967 ± 0.061 kg/m3
320 K, 16096 kPa	500.967 ± 0.061 kg/m3
320 K, 20063 kPa	508.971 ± 0.062 kg/m3 and 508.967 ± 0.062 kg/m3 and 508.969 ± 0.062 kg/m3
320 K, 20064 kPa	508.969 ± 0.062 kg/m3 and 508.971 ± 0.062 kg/m3
320 K, 24069 kPa	516.143 ± 0.062 kg/m3
320 K, 24072 kPa	516.146 ± 0.062 kg/m3 and 516.148 ± 0.062 kg/m3 and 516.147 ± 0.062 kg/m3
320 K, 29981 kPa	525.489 ± 0.064 kg/m3
320 K, 29983 kPa	525.494 ± 0.064 kg/m3
320 K, 29985 kPa	525.495 ± 0.064 kg/m3
320 K, 29986 kPa	525.497 ± 0.064 kg/m3
320 K, 35299 kPa	532.943 ± 0.064 kg/m3
320 K, 35300 kPa	532.945 ± 0.064 kg/m3 and 532.943 ± 0.064 kg/m3
320 K, 35301 kPa	532.945 ± 0.064 kg/m3
325 K, 803.73 kPa	14.6629 ± 0.0041 kg/m3 and 14.6627 ± 0.0041 kg/m3 and 14.6626 ± 0.0041 kg/m3
325 K, 803.74 kPa	14.6631 ± 0.0041 kg/m3 and 14.6629 ± 0.0041 kg/m3
325 K, 1340.6 kPa	27.0793 ± 0.032 kg/m3
325 K, 1340.9 kPa	27.1015 ± 0.032 kg/m3
325 K, 1341.2 kPa	27.0724 ± 0.032 kg/m3
325 K, 1341.8 kPa	27.0948 ± 0.032 kg/m3
330 K, 278.72 kPa	4.6293 ± 0.0029 kg/m3 [middle of 4 runs]
330 K, 492.57 kPa	8.4128 ± 0.0033 kg/m3 and 8.4127 ± 0.0033 kg/m3
330 K, 492.58 kPa	8.4128 ± 0.0033 kg/m3 and 8.4127 ± 0.0033 kg/m3
330 K, 817.85 kPa	14.6343 ± 0.0041 kg/m3
330 K, 817.86 kPa	14.6347 ± 0.0041 kg/m3 and 14.6346 ± 0.0041 kg/m3 and 14.6343 ± 0.0041 kg/m3
330 K, 817.87 kPa	14.6348 ± 0.0041 kg/m3
330 K, 1346.8 kPa	26.4281 ± 0.034 kg/m3
330 K, 1347 kPa	26.4322 ± 0.034 kg/m3
330 K, 1347.2 kPa	26.4396 ± 0.034 kg/m3
330 K, 1347.3 kPa	26.4407 ± 0.034 kg/m3 and 26.4409 ± 0.034 kg/m3
330 K, 1714.5 kPa	36.5728 ± 0.039 kg/m3 [middle of 5 runs]
335 K, 1765.2 kPa	36.7322 ± 0.25 kg/m3 and 36.7333 ± 0.25 kg/m3 and 36.7309 ± 0.25 kg/m3
335 K, 1765.3 kPa	36.7327 ± 0.25 kg/m3 and 36.733 ± 0.25 kg/m3
340 K, 287.12 kPa	4.6188 ± 0.0029 kg/m3 and 4.6185 ± 0.0029 kg/m3
340 K, 287.13 kPa	4.6186 ± 0.0029 kg/m3
340 K, 508.31 kPa	8.392 ± 0.0033 kg/m3 and 8.3919 ± 0.0033 kg/m3
340 K, 508.32 kPa	8.3921 ± 0.0033 kg/m3
340 K, 508.33 kPa	8.3921 ± 0.0033 kg/m3
340 K, 846.05 kPa	14.5839 ± 0.0041 kg/m3
340 K, 846.06 kPa	14.584 ± 0.0041 kg/m3 and 14.5839 ± 0.0041 kg/m3
340 K, 846.07 kPa	14.5839 ± 0.0041 kg/m3
340 K, 1352.2 kPa	25.1571 ± 0.032 kg/m3
340 K, 1352.4 kPa	25.1613 ± 0.032 kg/m3 and 25.1637 ± 0.032 kg/m3
340 K, 1352.5 kPa	25.161 ± 0.032 kg/m3
340 K, 1352.7 kPa	25.168 ± 0.032 kg/m3
340 K, 1816.9 kPa	36.9173 ± 0.043 kg/m3
340 K, 1817.1 kPa	36.9239 ± 0.043 kg/m3 and 36.9243 ± 0.043 kg/m3
340 K, 2355.2 kPa	55.4656 ± 0.27 kg/m3
340 K, 2355.4 kPa	55.4825 ± 0.27 kg/m3 and 55.4906 ± 0.27 kg/m3
340 K, 2355.5 kPa	55.5083 ± 0.27 kg/m3
340 K, 2355.8 kPa	55.4793 ± 0.27 kg/m3
340 K, 3925.4 kPa	425.071 ± 0.072 kg/m3 and 425.069 ± 0.072 kg/m3
340 K, 3925.5 kPa	425.072 ± 0.072 kg/m3
340 K, 3925.6 kPa	425.073 ± 0.072 kg/m3 and 425.071 ± 0.072 kg/m3 and 425.072 ± 0.072 kg/m3
340 K, 3925.7 kPa	425.072 ± 0.072 kg/m3 and 425.071 ± 0.072 kg/m3
340 K, 3925.8 kPa	425.071 ± 0.072 kg/m3 and 425.072 ± 0.072 kg/m3
340 K, 8053.4 kPa	448.649 ± 0.055 kg/m3
340 K, 8053.5 kPa	448.65 ± 0.055 kg/m3
340 K, 8053.6 kPa	448.651 ± 0.055 kg/m3
340 K, 8053.8 kPa	448.649 ± 0.055 kg/m3
340 K, 8054.1 kPa	448.649 ± 0.055 kg/m3
340 K, 12040 kPa	464.072 ± 0.057 kg/m3 and 464.071 ± 0.057 kg/m3
340 K, 12041 kPa	464.071 ± 0.057 kg/m3
340 K, 16069 kPa	476.246 ± 0.058 kg/m3 and 476.247 ± 0.058 kg/m3 and 476.248 ± 0.058 kg/m3
340 K, 16070 kPa	476.248 ± 0.058 kg/m3
340 K, 19781 kPa	485.636 ± 0.059 kg/m3
340 K, 19783 kPa	485.642 ± 0.059 kg/m3 and 485.644 ± 0.059 kg/m3
340 K, 19784 kPa	485.647 ± 0.059 kg/m3 [middle of 4 runs]
340 K, 19785 kPa	485.649 ± 0.059 kg/m3
340 K, 19943 kPa	485.999 ± 0.059 kg/m3
340 K, 19946 kPa	486.007 ± 0.059 kg/m3 and 486.009 ± 0.059 kg/m3 and 486.006 ± 0.059 kg/m3
340 K, 19947 kPa	486.007 ± 0.059 kg/m3
340 K, 23981 kPa	494.781 ± 0.06 kg/m3 and 494.78 ± 0.06 kg/m3
340 K, 23982 kPa	494.781 ± 0.06 kg/m3
340 K, 29812 kPa	505.708 ± 0.061 kg/m3
340 K, 29815 kPa	505.714 ± 0.061 kg/m3
340 K, 29816 kPa	505.715 ± 0.061 kg/m3 and 505.712 ± 0.061 kg/m3
340 K, 29817 kPa	505.713 ± 0.061 kg/m3
